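In this assay, cells in 96-well plates receive the compound at five concentrations for 48 hours. Endpoints are linearly interpolated between the surrounding concentrations. Here, GI50 denotes the concentration required for 50% inhibition of growth.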 Active and inactive are the calls of the source. Rule as the data show it: active = GI50 up to about 1.1 µM and inactive = higher.
How the values were obtained:
Assay in all cases: NCI anticancer screen, dose series, 48 h
[1] = test system: ACHN
[2] = test system: A549
[3] = test system: HOP-92
[4] = test system: MCF7
[5] = test system: U-251
[6] = test system: SK-MEL-28
[7] = test system: HCC 2998
[8] = test system: MOLT-4
[9] = test system: LOX IMVI
[10] = test system: OVCAR-3
[11] = test system: UO-31
[12] = test system: SK-OV-3
[13] = test system: UACC-62
[14] = test system: SK-MEL-5
[15] = test system: MDA-N
[16] = test system: UACC-257
[17] = test system: M14
[18] = test system: SN12C
[19] = test system: Malme-3M
[20] = test system: OVCAR-5

SMILES | GI50 [1] | GI50 [2] | GI50 [3] | GI50 [4] | GI50 [5] | GI50 [6] | GI50 [7] | GI50 [8] | GI50 [9] | GI50 [10] | GI50 [11] | GI50 [12] | GI50 [13] | GI50 [14] | GI50 [15] | GI50 [16] | GI50 [17] | GI50 [18] | GI50 [19] | GI50 [20]
COc1ccc2oc(=O)c(-c3cc4c(c(C)n3)c(=O)oc3ccc(OC)cc34)cc2c1 | 27.2 µM (inactive) | > 100 µM (inactive) | > 100 µM (inactive) | > 100 µM (inactive) | > 100 µM (inactive) | > 100 µM (inactive) | > 100 µM (inactive) | > 100 µM (inactive) | > 100 µM (inactive) | > 100 µM (inactive) | > 100 µM (inactive) | > 100 µM (inactive) | 35.8 µM (inactive) | > 100 µM (inactive) | > 100 µM (inactive) | > 100 µM (inactive) | > 100 µM (inactive) | > 100 µM (inactive) |  | 
C/C(=N\NS(=O)(=O)c1ccc(C)cc1)P(=O)(O)O | > 100 µM (inactive) | > 100 µM (inactive) | > 100 µM (inactive) | > 100 µM (inactive) | > 100 µM (inactive) | > 100 µM (inactive) |  |  | > 100 µM (inactive) | > 100 µM (inactive) | > 100 µM (inactive) | > 100 µM (inactive) | > 100 µM (inactive) | > 100 µM (inactive) | > 100 µM (inactive) | > 100 µM (inactive) | > 100 µM (inactive) | > 100 µM (inactive) | > 100 µM (inactive) | > 100 µM (inactive)
COc1ccc2[nH]cc(CCNC(=O)[C@H](Cc3ccccc3)NC(=O)[C@@H](NCC(F)(F)F)C(C)C)c2c1 | 28.2 µM (inactive) | 27 µM (inactive) | 12.1 µM (inactive) | 17.9 µM (inactive) | 21.4 µM (inactive) | 17.2 µM (inactive) |  | 20.4 µM (inactive) | 22.1 µM (inactive) | 15.6 µM (inactive) | 22.9 µM (inactive) | 18.2 µM (inactive) | 19.1 µM (inactive) |  | 18.2 µM (inactive) | 19.7 µM (inactive) | 17.7 µM (inactive) | 24.5 µM (inactive) | 21.6 µM (inactive) | 18.3 µM (inactive)
COc1ccc(NC(C)=O)c(C(=O)CCNC(C)=O)c1 | > 100 µM (inactive) | > 100 µM (inactive) | > 100 µM (inactive) | > 100 µM (inactive) | > 100 µM (inactive) |  |  | > 100 µM (inactive) | > 100 µM (inactive) | > 100 µM (inactive) | > 100 µM (inactive) | > 100 µM (inactive) | > 100 µM (inactive) | > 100 µM (inactive) | > 100 µM (inactive) | > 100 µM (inactive) | > 100 µM (inactive) | > 100 µM (inactive) |  | > 100 µM (inactive)
C[N+](C)(CCNC(=O)c1cccc2cc3ccccc3nc12)Cc1ccc([N+](=O)[O-])s1 | > 25 µM (inactive) | > 25 µM (inactive) | > 25 µM (inactive) | > 25 µM (inactive) | > 25 µM (inactive) | > 25 µM (inactive) |  | > 25 µM (inactive) | > 25 µM (inactive) | > 25 µM (inactive) | > 25 µM (inactive) | > 25 µM (inactive) | > 25 µM (inactive) | > 25 µM (inactive) | > 25 µM (inactive) | > 25 µM (inactive) | > 25 µM (inactive) | > 25 µM (inactive) | > 25 µM (inactive) | > 25 µM (inactive)
NCCSc1nc2ccccc2s1 | 33.5 µM (inactive) | 48.3 µM (inactive) | 25.5 µM (inactive) | 28.8 µM (inactive) | 21.7 µM (inactive) | > 100 µM (inactive) |  | 34.9 µM (inactive) | 30.7 µM (inactive) | 38.6 µM (inactive) | 43.8 µM (inactive) | 32.1 µM (inactive) | 31.3 µM (inactive) | 52.7 µM (inactive) | 38.3 µM (inactive) | 47 µM (inactive) | 33.7 µM (inactive) | 38.7 µM (inactive) | 50.8 µM (inactive) | 38.3 µM (inactive)
N/C(=N\Nc1nc2cc([N+](=O)[O-])ccc2o1)c1ccccn1 | 0.0802 µM (active) | 0.163 µM (active) | 0.242 µM (active) | 0.12 µM (active) | 0.0966 µM (active) | 0.222 µM (active) |  | 0.0621 µM (active) | 0.071 µM (active) | 0.0422 µM (active) |  | 0.403 µM (active) | 0.0574 µM (active) | 0.157 µM (active) | 0.189 µM (active) | 0.0929 µM (active) | 0.144 µM (active) | 0.189 µM (active) | 0.401 µM (active) | 0.137 µM (active)
C#C[C@]1(O)CC[C@H]2[C@@H]3CCC4=C/C(=N/NC(=O)c5cccc6cc7ccccc7nc56)CC[C@@H]4[C@H]3CC[C@@]21CC | > 100 µM (inactive) | 47 µM (inactive) | > 100 µM (inactive) | 38.4 µM (inactive) | > 100 µM (inactive) | > 100 µM (inactive) | > 100 µM (inactive) | 0.0942 µM (active) | 48.9 µM (inactive) | 75.5 µM (inactive) |  | > 100 µM (inactive) | 95.5 µM (inactive) | 21.9 µM (inactive) | 93.3 µM (inactive) | > 100 µM (inactive) | 84.7 µM (inactive) | 35.4 µM (inactive) |  | 77.3 µM (inactive)
OCC(O)C(O)C(O)C(/C=N\Nc1ncnc2ccc(Br)cc12)=N/Nc1ncnc2ccc(Br)cc12 (stereo unspecified) | 5.24 µM (inactive) | 23.2 µM (inactive) | 13.8 µM (inactive) | 34.4 µM (inactive) | 3.34 µM (inactive) | 45.9 µM (inactive) |  | 2.62 µM (inactive) | 5.12 µM (inactive) | 2.72 µM (inactive) | 37.5 µM (inactive) | 6.38 µM (inactive) |  | 3.37 µM (inactive) | 15.1 µM (inactive) | 7.48 µM (inactive) | 9.48 µM (inactive) | 17.9 µM (inactive) | 3.53 µM (inactive) | 16.7 µM (inactive)
COc1cc(C2c3cc4c(cc3OC(NCCO)C2C)OCO4)cc(OC)c1O (stereo unspecified) |  | 10.1 µM (inactive) | 86.5 µM (inactive) | 9.29 µM (inactive) | 6.08 µM (inactive) | 7.64 µM (inactive) | 5.81 µM (inactive) |  |  | 5.2 µM (inactive) | 24.5 µM (inactive) |  | 2.94 µM (inactive) | 4.86 µM (inactive) | 1.61 µM (inactive) |  | 9.55 µM (inactive) | 4.6 µM (inactive) | 6.37 µM (inactive) | 30.7 µM (inactive)
Cc1ccc(S(=O)(=O)NC(=O)Nc2ccc(C(=O)O)cc2)cc1 | > 100 µM (inactive) | > 100 µM (inactive) | > 100 µM (inactive) | > 100 µM (inactive) | > 100 µM (inactive) | > 100 µM (inactive) |  | > 100 µM (inactive) | > 100 µM (inactive) |  | > 100 µM (inactive) | > 100 µM (inactive) | > 100 µM (inactive) | > 100 µM (inactive) | > 100 µM (inactive) | > 100 µM (inactive) | > 100 µM (inactive) | > 100 µM (inactive) | > 100 µM (inactive) | > 100 µM (inactive)

— ChEMBL document CHEMBL1201862, “PubChem BioAssay data set” (2004)
